Experimental data reported in ChEMBL document CHEMBL3785034, “New isosteroidal alkaloids with tracheal relaxant effect from the bulbs of Fritillaria pallidiflora Schrenk” (Bioorg Med Chem Lett, 2016).
The source made the active and inactive calls. The calls are words filed in the database; no cut-off is given here.

Tests used:
Trachea [1] = test: Inhibition of Ach-induced contraction in Sprague-Dawley rat trachea at 1 to 100 umol/L; format: functional, tissue-based; conditions: read-out: pA2 (converted)
Trachea [2] = test: Inhibition of Ach-induced contraction in Sprague-Dawley rat trachea at 100 umol/L; format: functional, tissue-based
Trachea [3] = test: Inhibition of Ach-induced contraction in Sprague-Dawley rat trachea; format: functional, tissue-based
Trachea [4] = test: Inhibition of KCl-induced contraction in Sprague-Dawley rat trachea assessed as maximal diastolic rate at 10^-8 mol/L (reference value: 7 +/- 0.3%); format: functional; design: scale not given: the % may be the effect or the level left
Trachea [5] = test: Inhibition of KCl-induced contraction in Sprague-Dawley rat trachea assessed as maximal diastolic rate at 10^-9 mol/L (reference value: 5.9 +/- 1.8%); format: functional; design: scale not given: the % may be the effect or the level left
Trachea [6] = test: Inhibition of KCl-induced contraction in Sprague-Dawley rat trachea assessed as maximal diastolic rate at 10^-7 mol/L (reference value: 7 +/- 0.8%); format: functional; design: scale not given: the % may be the effect or the level left
Trachea [7] = test: Inhibition of KCl-induced contraction in Sprague-Dawley rat trachea assessed as maximal diastolic rate at 10^-6 mol/L (reference value: 6 +/- 1.2%); format: functional; design: scale not given: the % may be the effect or the level left
Trachea [8] = test: Inhibition of KCl-induced contraction in Sprague-Dawley rat trachea assessed as maximal diastolic rate at 10^-5 mol/L (reference value: 6 +/- 0.6%); format: functional; design: scale not given: the % may be the effect or the level left
Trachea [9] = test: Inhibition of KCl-induced contraction in Sprague-Dawley rat trachea assessed as maximal diastolic rate at 10^-4 mol/L (reference value: 6.6 +/- 0.3%); format: functional; design: scale not given: the % may be the effect or the level left
Trachea [10] = test: Inhibition of Ach-induced contraction in Sprague-Dawley rat trachea assessed as maximal diastolic rate at 10^-9 mol/L (reference value: 12.7 +/- 2.8%); format: functional; design: scale not given: the % may be the effect or the level left
Trachea [11] = test: Inhibition of Ach-induced contraction in Sprague-Dawley rat trachea assessed as maximal diastolic rate at 10^-8 mol/L (reference value: 14 +/- 1.8%); format: functional; design: scale not given: the % may be the effect or the level left
Trachea [12] = test: Inhibition of Ach-induced contraction in Sprague-Dawley rat trachea assessed as maximal diastolic rate at 10^-7 mol/L (reference value: 14.2 +/- 2.3%); format: functional; design: scale not given: the % may be the effect or the level left
Trachea [13] = test: Inhibition of Ach-induced contraction in Sprague-Dawley rat trachea assessed as maximal diastolic rate at 10^-6 mol/L (reference value: 15.9 +/- 3%); format: functional; design: scale not given: the % may be the effect or the level left
Trachea [14] = test: Inhibition of Ach-induced contraction in Sprague-Dawley rat trachea assessed as maximal diastolic rate at 10^-5 mol/L (reference value: 15.9 +/- 2.6%); format: functional; design: scale not given: the % may be the effect or the level left
Trachea [15] = test: Inhibition of Ach-induced contraction in Sprague-Dawley rat trachea assessed as maximal diastolic rate at 10^-4 mol/L (reference value: 15 +/- 4.2%); format: functional; design: scale not given: the % may be the effect or the level left
Trachea [16] = test: Inhibition of Ach-induced contraction in Sprague-Dawley rat trachea assessed as tracheal tension at 10^-9 mol/L (reference value: 0.63 to 0.98g); format: functional
Trachea [17] = test: Inhibition of Ach-induced contraction in Sprague-Dawley rat trachea assessed as tracheal tension at 10^-8 mol/L (reference value: 0.63 to 0.98 g); format: functional
Trachea [18] = test: Inhibition of Ach-induced contraction in Sprague-Dawley rat trachea assessed as tracheal tension at 10^-7 mol/L (reference value: 0.63 to 0.98 g); format: functional
Trachea [19] = test: Inhibition of Ach-induced contraction in Sprague-Dawley rat trachea assessed as tracheal tension at 10^-6 mol/L (reference value: 0.63 to 0.98 g); format: functional
Trachea [20] = test: Inhibition of Ach-induced contraction in Sprague-Dawley rat trachea assessed as tracheal tension at 10^-5 mol/L (reference value: 0.63 to 0.98 g); format: functional
Trachea [21] = test: Inhibition of Ach-induced contraction in Sprague-Dawley rat trachea assessed as tracheal tension at 10^-4 mol/L (reference value: 0.63 to 0.98 g); format: functional
Trachea [22] = test: Inhibition of KCl-induced contraction in Sprague-Dawley rat trachea assessed as tracheal tension at 10^-9 mol/L (reference value: 2.16 to 2.59 g); format: functional
Trachea [23] = test: Inhibition of KCl-induced contraction in Sprague-Dawley rat trachea assessed as tracheal tension at 10^-8 mol/L (reference value: 2.16 to 2.59 g); format: functional
Trachea [24] = test: Inhibition of KCl-induced contraction in Sprague-Dawley rat trachea assessed as tracheal tension at 10^-7 mol/L (reference value: 2.16 to 2.59 g); format: functional
Trachea [25] = test: Inhibition of KCl-induced contraction in Sprague-Dawley rat trachea assessed as tracheal tension at 10^-6 mol/L (reference value: 2.16 to 2.59 g); format: functional
Trachea [26] = test: Inhibition of KCl-induced contraction in Sprague-Dawley rat trachea assessed as tracheal tension at 10^-5 mol/L (reference value: 2.16 to 2.59 g); format: functional
Trachea [27] = test: Inhibition of KCl-induced contraction in Sprague-Dawley rat trachea assessed as tracheal tension at 10^-4 mol/L (reference value: 2.16 to 2.59 g); format: functional

C[C@@H]1CC[C@H]2N(C1)C[C@H]1[C@@H]3C[C@H]4[C@@H](CC(=O)[C@H]5C[C@@H](O)CC[C@@]54C)[C@@H]3CC[C@@H]1[C@]2(C)O
Kb (Trachea [1]): 646 nM
inhibition (Trachea [2]): Active
EC50 (Trachea [3]): 650 nM
Activity (Trachea [4]): 5.2%
Activity (Trachea [5]): 6.2%
Activity (Trachea [6]): 3.2%
Activity (Trachea [7]): 3.6%
Activity (Trachea [8]): 3.3%
Activity (Trachea [9]): 3.6%
Activity (Trachea [10]): 15.8%
Activity (Trachea [11]): 20.6%
Activity (Trachea [12]): 27.5%
Activity (Trachea [13]): 30.4%
Activity (Trachea [14]): 34.3%
Activity (Trachea [15]): 39.3%
Activity (Trachea [16]): 0.54 g
Activity (Trachea [17]): 0.51 g
Activity (Trachea [18]): 0.48 g
Activity (Trachea [19]): 0.46 g
Activity (Trachea [20]): 0.43 g
Activity (Trachea [21]): 0.38 g
Activity (Trachea [22]): 2.43 g
Activity (Trachea [23]): 2.46 g
Activity (Trachea [24]): 2.49 g
Activity (Trachea [25]): 2.48 g
Activity (Trachea [26]): 2.49 g
Activity (Trachea [27]): 2.48 g
